Measurements taken from US20090023687A1, “Method for Controlling Phytopathogenic Organisms” (SYNGENTA CROP PROTECTION, INC., priority 2005, published 2009).

How the values were obtained:
Phakopsora pachyrhizi [1] = assay: Leaf disc test with Phakopsora pachyrhizi on glyphosate sensitive soybean, leaf disks treated (Example 4); format: in vivo
From the text: (§1) A synergistic effect exists whenever the action of an active ingredient combination is greater than the action expected from the effect of the individual components.
(§2) The action to be expected (E) for a given active ingredient combination obeys the so-called COLBY formula and can be calculated as follows (COLBY, S. R. “Calculating synergistic and antagonistic responses of herbicide combination”. Weeds, Vol. 15, pages 20-22; 1967):
(§3) ppm=milligrams of active ingredient (=a.i.) per litre of spray mixture X=% action by active ingredient I using p ppm of active ingredient Y=% action by active ingredient II using q ppm of active ingredient.
(§4) According to Colby, the expected (additive) action of active ingredients I+II using p+q ppm of active ingredient is
(§5) If the action actually observed (O) is greater than the expected action (E), then the action of the combination is superadditive, i.e. there is a synergistic effect.
A series of leaf disc tests were conducted to show the effects of tank mixtures of glyphosate and pesticides or plant activators on Asian soybean rust. The soybean variety tested was brand Williams82 glyphosate sensitive soybean. The leaf source for the testing was the first trifoliate leaf. Six (6) repetitions for each formulation and at each rate were conducted. Treatment of the leaf disks with the recited active ingredients was conducted 4 weeks after planting. The leaves were inoculated with Phakopsora pachyrhizi (Asian soybean rust (ASR)) one (1) day after treatment. Evaluation of the leaf was conducted ten (10) days after inoculation and the mean percent infestation of the six repetitions is reported in Tables 8-11.
As glyphosate source Touchdown® HiTech or Zapp® QI was used. The fungicides were used as commercial formulations: Bion® WG50 plant activator comprising acibenzolar-S-methyl (Syngenta Corp.), Opus® SC125 fungicide comprising epoxiconazole commercially (BASF AG), Tilt® EC250 fungicide comprising propiconazole (Syngenta Corp.), Quadris® SC250 fungicide comprising azoxystrobin (Syngenta Corp.). The rates of the active ingredients used in the tests are set in Tables 8-11 as mg active ingredient (a.i.)/L.

Phakopsora pachyrhizi [2] = assay: Application on whole plants: leaf disc test with Phakopsora pachyrhizi on glyphosate sensitive soybean (Example 5); format: in vivo
From the text: as §1, §2, §3, §4, §5
A series of leaf disc tests were conducted to show the effects of tank mixtures of glyphosate and pesticides or plant activators on Asian soybean rust. The soybean variety tested was brand Williams82 glyphosate sensitive soybean. The leaf source for the testing was the first trifoliate leaf. Six (6) repetitions for each formulation and at each rate were conducted. Treatment of whole plants with the recited active ingredients was conducted 4 weeks after planting. After application, leaf disks were cut and inoculated with Phakopsora pachyrhizi (Asian soybean rust (ASR)) one (1) day after treatment. Evaluation of the leaf was conducted ten (10) days after inoculation and the mean percent infestation of the six repetitions is reported in Tables 12-14.
As glyphosate source Touchdown® HiTech or Zapp® QI was used. The fungicides were used as commercial formulations: Cantus® WG50 fungicide comprising boscalid (BASF AG), Quadris® SC250 fungicide and Bion® WG50 plant activator comprising acibenzolar-S-methyl. The rates of the active ingredients used in the tests are set in Tables 12-14 as g active ingredient (a.i.)/hectare (ha). The spray volume was 200 l/ha.

[3] = Glyphosate TD HiTech SL523 2.5 mg a.i./L, Table 9 (check 77)
[4] = Glyphosate TD HiTech SL523 2.5 mg a.i./L, Table 11 (check 80)
[5] = Glyphosate TD HiTech SL523 7.4 mg a.i./L, Table 11 (check 80)
[6] = Glyphosate TD HiTech SL523 7.4 mg a.i./L, Tables 9-10 (check 77)
[7] = Glyphosate TD HiTech SL523 22.2 mg a.i./L
[8] = Glyphosate Zapp QI SL500 22.2 mg a.i./L
[9] = Glyphosate Zapp QI SL500 66.7 mg a.i./L
[10] = Glyphosate TD HiTech SL523 200 g a.i./ha
[11] = Glyphosate TD HiTech SL523 500 g a.i./ha
[12] = Glyphosate TD HiTech SL523 600 g a.i./ha

O=C(O)CNCP(=O)(O)O [Glyphosate, glyphosate]
Activity observed % (Phakopsora pachyrhizi [1]; [3]): 0% | Leaf attack % (Phakopsora pachyrhizi [1]; [3]): 80% | Activity observed % (Phakopsora pachyrhizi [1]; [4]): 8% | Leaf attack % (Phakopsora pachyrhizi [1]; [4]): 74% | Activity observed % (Phakopsora pachyrhizi [1]; [5]): 0% | Leaf attack % (Phakopsora pachyrhizi [1]; [5]): 80% | Activity observed % (Phakopsora pachyrhizi [1]; [6]): 0% | Leaf attack % (Phakopsora pachyrhizi [1]; [6]): 80% | Activity observed % (Phakopsora pachyrhizi [1]; [7]): 0% | Leaf attack % (Phakopsora pachyrhizi [1]; [7]): 80% | Activity observed % (Phakopsora pachyrhizi [1]; [8]): 1% | Leaf attack % (Phakopsora pachyrhizi [1]; [8]): 68% | Activity observed % (Phakopsora pachyrhizi [1]; [9]): 1% | Leaf attack % (Phakopsora pachyrhizi [1]; [9]): 68% | Activity observed % (Phakopsora pachyrhizi [2]; [10]): 7% | Leaf attack % (Phakopsora pachyrhizi [2]; [10]): 58% | Activity observed % (Phakopsora pachyrhizi [2]; [11]): 10% | Leaf attack % (Phakopsora pachyrhizi [2]; [11]): 56% | Activity observed % (Phakopsora pachyrhizi [2]; [12]): 19% | Leaf attack % (Phakopsora pachyrhizi [2]; [12]): 50%
